The source of these data is patent publication EP4775580A1, “COMPOUND, PHARMACEUTICAL COMPOSITION COMPRISING SAME, AND USE THEREOF” (Euregen Biopharma Co., Ltd., priority 2023, dated 2025).

Where a chain is given by its changes, count along the chain named.

One experiment deals with MV-4-11 cells. Briefly: Antiproliferative activity, CellTiter-Glo, 7 days (Test Example 2), MV-4-11. It is filed as cell-based. The note with it: Homo sapiens, MV4-11, 168 h, 7 days incubation. An excerpt:
[0134] 1. Experimental Principle: MV-4-11, Molm-13, and OCI-AML-3 cells are human hematologic tumor cell lines harboring the Menin-MLL fusion. HL-60 is a wild-type human hematologic tumor cell line without Menin-MLL fusion. […] 2. Experimental Materials: MV-4-11, Molm-13, OCI-AML-3, and HL-60 cells were all purchased from Cobioer; CellTiter-Glo® was purchased from Promega (Cat. #G7571); RPMI-1640 was purchased from Viva Cell (Cat. #C3010-0500); IMDM was purchased from Viva Cell (Cat. #C3040-0500); fetal bovine serum (FBS) was purchased from Biosera (Cat. #FB-1058/500); penicillin-streptomycin was purchased from BasalMedia (Cat. #S110JV); 0.25% Trypsin-EDTA was purchased from BasalMedia (Cat. #S310KJ); dimethyl sulfoxide (DMSO) was purchased from Sinopharm (Cat. #30072418); 96-well plates were purchased from Corning (Cat. #3610); incubator was obtained from PHCbi (Model: MCO-18AC); inverted microscope was obtained from Mingmei (Cat. #MI52-0); automated cell counter was obtained from BodBoge (Model: JSY-SC-031N); microplate reader was obtained from PerkinElmer (Model: Envision); data processing software: GraphPad Prism 8.0. 3. Experimental Methods: Four cell lines in logarithmic growth phase were resuspended in their respective growth media (MV-4-11: IMDM + 20% FBS; Molm-13: RPMI-1640 + 20% FBS; OCI-AML-3: RPMI-1640 + 20% FBS; HL-60: RPMI-1640 + 10% FBS) and diluted to target densities (12,500, 6,250, 12,500, and 12,500/mL, respectively). The cell suspensions were seeded into 96-well plates at 80 µL per well and incubated overnight at 37°C in a 5% CO2 incubator. Culture medium served as the background control. Test compounds were dissolved in DMSO to prepare 10 mmol/L stock solutions. The stock solutions were first diluted to 2 mmol/L with DMSO, followed by 4-fold serial dilutions to generate 10 concentrations. From each concentration, 2 µL was diluted with 78 µL growth medium. […] After incubation at room temperature for 10 minutes, luminescence values were read using the EnVision microplate reader, and IC50 values were calculated using GraphPad Prism 8.0 software. […]

Experiment [1] concerns the target T1, wild-type Menin protein (Menin-WT) (Homo sapiens, UniProt O00255).
T1 sequence (O00255 1-615 isoform O00255-1): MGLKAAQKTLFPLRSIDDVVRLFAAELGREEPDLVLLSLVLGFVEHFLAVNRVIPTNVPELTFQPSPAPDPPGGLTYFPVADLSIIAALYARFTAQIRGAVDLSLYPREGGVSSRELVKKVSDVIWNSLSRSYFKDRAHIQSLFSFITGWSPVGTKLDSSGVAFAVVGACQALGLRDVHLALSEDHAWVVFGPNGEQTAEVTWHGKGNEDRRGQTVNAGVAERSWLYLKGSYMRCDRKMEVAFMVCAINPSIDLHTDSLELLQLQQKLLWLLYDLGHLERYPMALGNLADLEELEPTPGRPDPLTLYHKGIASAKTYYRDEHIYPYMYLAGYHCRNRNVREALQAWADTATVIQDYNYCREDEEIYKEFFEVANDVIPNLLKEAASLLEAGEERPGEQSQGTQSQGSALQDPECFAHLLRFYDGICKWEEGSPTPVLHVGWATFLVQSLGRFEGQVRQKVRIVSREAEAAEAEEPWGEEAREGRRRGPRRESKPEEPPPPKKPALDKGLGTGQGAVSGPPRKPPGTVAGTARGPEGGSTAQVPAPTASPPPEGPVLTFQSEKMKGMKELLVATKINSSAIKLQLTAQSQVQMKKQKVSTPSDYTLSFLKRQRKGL
Kind of experiment: Fluorescence polarization assay of Menin binding to MLL peptide, wild type. As to conditions: FP, 8 nM Menin, 4 nM MLL peptide. An excerpt:
(§1) • 1. Objective: To evaluate the inhibitory activity of compounds against wild-type Menin protein (Menin-WT) and its mutant variants (Menin-M327V, Menin-M327I, Menin-T349M, Menin-S160T, Menin-S160C, Menin-G331R, and Menin-G331D). • 2. Experimental Principle: The experiment employed fluorescence polarization (FP) to detect the binding of wild-type Menin protein and its mutant variants to MLL peptide. In the absence of inhibitors, binding of wild-type Menin protein and its mutant variants to MLL peptide generates a high FP signal; upon addition of inhibitors, the binding between Menin proteins and MLL peptide is disrupted, resulting in a low FP signal. • 3. Experimental Materials: Final concentration of wild-type Menin protein and its mutant variants: 8 nM; final concentration of MLL peptide: 4 nM. Assay buffer: 50 mM Tris-HCl (pH 8.0), 120 mM NaCl, 0.005% CA-630, 2 mM DTT. • 4. […] The plate was centrifuged at 1000 rpm for 60 seconds. Subsequently, 10 µL of MLL peptide was added to each assay well. The plate was centrifuged at 1000 rpm for 60 seconds and sealed with a sealing membrane. After incubation at 23°C for 60 minutes, the plate was read using a PerkinElmer Envision reader. Data Analysis: [formula]
(§2) Curve fitting: XLFIT software was used for curve fitting, employing a four-parameter logistic model with percent inhibition versus log(compound concentration) as variables.
For orientation: Fluorescence polarisation rises when a labelled molecule tumbles more slowly, as on binding a larger partner.

Another experiment has as its target T2, Menin-T349M (Homo sapiens, UniProt O00255, T344M).
T2 sequence (O00255 1-615 isoform O00255-1 T349M): T1 sequence (O00255 1-615 isoform O00255-1) with T349M
Kind of experiment: Fluorescence polarization assay of Menin binding to MLL peptide, T349M mutant. As to conditions: FP, 8 nM Menin, 4 nM MLL peptide.
Text: as §1, §2

One may read the IC50 as the concentration at which inhibition is half-maximal. A higher IC50 goes with lower potency.

With `CCN(C(=O)c1cc(F)ccc1N1CCN([C@@H]2CCN([C@H](CCCN(C)CCOC)C(C)C)C2)c2ncncc21)C(C)C` [Example 3], the IC50 with MV-4-11 cells amounted to 10.1 nM; in experiment [1] it was 13 nM; at Menin-T349M it was 46.7 nM.
`CCN(C(=O)c1cc(F)ccc1Oc1cncnc1N1CC2(CCN(C[C@H]3CC[C@H](NS(=O)(=O)CC)CC3)CC2)C1)C(C)C` [SNDX-5613, revumenib]: the half-inhibitory concentration (IC50) with MV-4-11 cells came out at 14.4 nM; in experiment [1], 17.6 nM; on Menin-T349M, 271 nM.
